Bridge positions count the residues as written; N and C are the ends. Ends that are not written are not given here.
How the values were obtained:
human GPRC6A isoform 1 [1] = molecular target: T1, human GPRC6A isoform 1 (Homo sapiens, UniProt Q5T6X5); assay: cAMP accumulation in HEK-293 cells transfected with human GPRC6A isoform 1 (wild-type, full length); type: cell-based; conditions: for cAMP accumulation by synthesized human Ocn fragments: fragments at 20 nM, Figure 3C / S5C
T1 construct: expressed in transfected cells; host or cells: HEK-293, pcDNA3-hGPRC6A
T1 sequence (Q5T6X5 19-926): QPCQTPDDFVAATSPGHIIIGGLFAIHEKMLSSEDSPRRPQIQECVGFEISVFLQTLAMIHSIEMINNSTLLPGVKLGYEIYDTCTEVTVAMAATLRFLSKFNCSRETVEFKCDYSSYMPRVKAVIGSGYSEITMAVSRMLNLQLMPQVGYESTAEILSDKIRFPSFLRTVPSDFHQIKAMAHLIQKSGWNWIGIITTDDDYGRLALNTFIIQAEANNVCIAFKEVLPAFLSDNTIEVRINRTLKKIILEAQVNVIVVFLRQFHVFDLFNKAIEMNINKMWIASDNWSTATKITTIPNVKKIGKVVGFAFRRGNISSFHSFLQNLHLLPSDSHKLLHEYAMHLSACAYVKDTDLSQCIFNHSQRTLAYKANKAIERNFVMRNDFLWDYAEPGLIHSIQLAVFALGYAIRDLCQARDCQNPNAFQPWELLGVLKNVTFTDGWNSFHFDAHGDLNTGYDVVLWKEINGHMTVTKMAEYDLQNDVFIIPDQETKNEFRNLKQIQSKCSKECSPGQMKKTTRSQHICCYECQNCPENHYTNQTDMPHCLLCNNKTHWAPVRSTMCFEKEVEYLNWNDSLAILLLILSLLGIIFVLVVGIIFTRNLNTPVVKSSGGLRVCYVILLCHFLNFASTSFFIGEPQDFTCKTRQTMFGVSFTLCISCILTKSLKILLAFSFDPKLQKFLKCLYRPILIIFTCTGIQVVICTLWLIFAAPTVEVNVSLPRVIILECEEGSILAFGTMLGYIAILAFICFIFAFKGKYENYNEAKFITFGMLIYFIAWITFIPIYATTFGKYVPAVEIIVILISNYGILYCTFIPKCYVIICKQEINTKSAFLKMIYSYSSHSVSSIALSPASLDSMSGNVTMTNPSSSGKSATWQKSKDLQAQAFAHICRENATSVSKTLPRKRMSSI
Experimental: HEK‐293 transfected with human GPRC6A isoform cDNA plasmids cells (10^5 cells/well)[30] were cultured in 24‐well plates in DMEM supplemented with 10% fetal bovine serum and 1% penicillin/streptomycin (100 U/mL of penicillin and 100 μg/mL of streptomycin) for 48 h followed by 4 h incubation in DMEM/F12 containing 0.1% BSA and 0.5 mM IBMX to achieve quiescence and preventing cAMP degradation. Quiescent cells were treated with vehicle control, various ligands at concentration as indicated for 40 min at 37°C. Then, the reaction was stopped, and the cells lysed with 0.5 mL 0.1 N HCl. cAMP levels were measured by using Cyclic AMP EIA kit (Cayman Chemical; Ann Arbor, MA, USA) following the manufacture's protocol.

human GPRC6A isoform 1 [2] = molecular target: T1, human GPRC6A isoform 1; assay: ERK activation (phospho-ERK/total ERK ELISA) in HEK-293 cells transfected with human GPRC6A isoform 1 (wild-type); type: cell-based; conditions: for ERK phosphorylation by synthesized human Ocn fragments: fragments at 20 nM, HEK-293 with pcDNA3-hGPRC6A, Figure 3B / S5B
Experimental: All culture reagents were from Invitrogen (Waltham, MA, USA). Human embryonic kidney HEK‐293 cells were obtained from American Type Culture Collection and cultured in DMEM medium supplemented with 10% fetal bovine serum and 1% Penicillin/Streptomycin (P/S). Briefly, HEK‐293 cells transfected with/without human GPRC6A isoforms cDNA plasmids were starved by overnight incubation in serum‐free DMEM/F12 containing 0.1% bovine serum albumin (BSA) and stimulated with various ligands at different doses. […]

[3] = HEK-293 with pcDNA3-hGPRC6A, 40 min

Row | Potency compared to full-length Ocn 1–49, cAMP dose response (human GPRC6A isoform 1 [1]; HEK-293 with pcDNA3-hGPRC6A, Figure S5A) | cAMP accumulation by synthesized human Ocn fragments (human GPRC6A isoform 1 [1]; [3]) | ERK phosphorylation by synthesized human Ocn fragments (human GPRC6A isoform 1 [2]; 15 min) | cAMP accumulation, dose response of full-length Ocn (human GPRC6A isoform 1 [1]; WT hGPRC6A, Figure 6A) | ERK phosphorylation, dose response of full-length Ocn (human GPRC6A isoform 1 [2]; WT hGPRC6A, Figure 6B) | Substance | Ocn-induced cAMP accumulation, dose response (human GPRC6A isoform 1 [1]; isoform 1, Ocn 1.73, 8.65, 17.3, 26.0 nM, 1 mM calcium, 40 min, Figure 2C) | Ocn-induced ERK activation, dose response (human GPRC6A isoform 1 [2]; isoform 1, Ocn 1.73, 8.65, 17.3, 26.0 nM, 1 mM calcium, 15 min, Figure 2B)
1 | greater potency | high activity | high activity |  |  | REVCELNPDC (disulfide 4-10 (inferred)) [Ocn 20–29, synthesized human Ocn decapeptide fragment located in the middle of the protein] |  | 
2 |  | high activity | high activity |  |  | RFYGPV [Ocn 44–49, synthesized human Ocn C‐terminal hexapeptide] |  | 
3 |  |  |  | dose‐dependently stimulated | dose‐dependently stimulated | osteocalcin (YLYQWLGAPVPYPDPLEPRREVCELNPDCDELADHIGFQEAYRRFYGPV; not fully specified; ends and bridges not checked; UniProt P02818 52-100, looked up) [Ocn 1–49, full human Ocn (49 aa) synthesized by BioMatik; methods also describe decarboxylated Ocn purified from bovine tibial bone, reference compound] | activated GPRC6A isoform 1 in a dose dependent manner | activated GPRC6A isoform 1 in a dose dependent manner

Reference: PMC11467737, “Osteocalcin binds to a GPRC6A Venus fly trap allosteric site to positively modulate GPRC6A signaling” (FASEB BioAdvances, 2024)
